Experimental data from ChEMBL document CHEMBL1201862, “PubChem BioAssay data set” (2004).
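Test compounds were applied to cells in 96-well plates for 48 hours at 5 doses. GI50 is the concentration that inhibits growth by half.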 The source made the active and inactive calls. No stated cut-off is given here; in the data, active = GI50 up to about 1.1 µM and inactive = higher.

Tests used:
Experiment in all cases: NCI anticancer screen, dose series, 48 h
CCRF-CEM = tested on: CCRF-CEM
DU-145 = tested on: DU-145
HOP-62 = tested on: HOP-62
HOP-92 = tested on: HOP-92
KM12 = tested on: KM12
M14 = tested on: M14
MCF7 = tested on: MCF7
NCI-H226 = tested on: NCI-H226
OVCAR-8 = tested on: OVCAR-8
RPMI-8226 = tested on: RPMI-8226
SF-295 = tested on: SF-295
SF-539 = tested on: SF-539
SK-MEL-5 = tested on: SK-MEL-5
SN12C = tested on: SN12C
SW-620 = tested on: SW-620
TK-10 = tested on: TK-10
U-251 = tested on: U-251
Malme-3M = tested on: Malme-3M
NCI-H522 = tested on: NCI-H522
SR = tested on: SR

Measured: GI50

CSc1scc2c1/C(=N/NC(N)=O)CCC2
inactive: CCRF-CEM 41.1 µM | DU-145 45.2 µM | HOP-62 > 100 µM | HOP-92 2.34 µM | KM12 86.1 µM | M14 > 100 µM | MCF7 90.4 µM | NCI-H226 22.4 µM | OVCAR-8 > 100 µM | RPMI-8226 88.1 µM | SF-295 60.5 µM | SF-539 > 100 µM | SK-MEL-5 41.1 µM | SN12C > 100 µM | SW-620 > 100 µM | TK-10 > 100 µM | U-251 > 100 µM

NCCC(=O)N[C@@H](Cc1cc(O)c(O)c(SCC(NC(=O)CC[C@H](N)C(=O)O)C(=O)NCC(=O)O)c1)C(=O)O (stereo partly specified)
inactive: DU-145 > 50 µM | HOP-62 34.4 µM | HOP-92 > 50 µM | KM12 > 50 µM | M14 > 50 µM | MCF7 > 50 µM | Malme-3M > 50 µM | NCI-H226 > 50 µM | NCI-H522 > 50 µM | RPMI-8226 > 50 µM | SF-295 > 50 µM | SN12C > 50 µM | SW-620 > 50 µM | TK-10 > 50 µM | U-251 > 50 µM

CCOc1ccc2nc3nc(O)nc(C)c3c(NCCCN(CC)CC)c2c1
inactive: CCRF-CEM > 100 µM | DU-145 > 100 µM | HOP-62 > 100 µM | HOP-92 > 100 µM | KM12 > 100 µM | M14 > 100 µM | MCF7 > 100 µM | Malme-3M > 100 µM | NCI-H226 > 100 µM | NCI-H522 > 100 µM | OVCAR-8 > 100 µM | SF-295 > 100 µM | SF-539 > 100 µM | SK-MEL-5 > 100 µM | SN12C > 100 µM | SW-620 > 100 µM | TK-10 > 100 µM | U-251 > 100 µM

COc1cc([C@@H]2c3cc4c(cc3[C@@H](OC3OC5COC(C)OC5C(OC(=O)CN5CCN(C)CC5)C3OC(=O)CN3CCN(C)CC3)C3COC(=O)[C@@H]32)OCO4)cc(OC)c1OC(=O)CN1CCN(C)CC1 (stereo partly specified)
inactive: CCRF-CEM 9.29 µM | DU-145 44.7 µM | HOP-62 40.2 µM | HOP-92 > 100 µM | KM12 > 100 µM | M14 55.8 µM | MCF7 10.8 µM | Malme-3M 61.7 µM | NCI-H226 50.4 µM | NCI-H522 27.2 µM | OVCAR-8 60.8 µM | SF-295 38.1 µM | SF-539 23.1 µM | SK-MEL-5 43.5 µM | SN12C 44.1 µM | SW-620 41.8 µM | TK-10 > 100 µM | U-251 26.9 µM

CCOC(=O)CC(=O)N(c1ccc(OC)cc1)C(C(=O)OC)c1ccccc1 (stereo unspecified)
inactive: CCRF-CEM > 100 µM | DU-145 > 100 µM | HOP-62 > 100 µM | KM12 > 100 µM | M14 > 100 µM | MCF7 > 100 µM | NCI-H522 > 100 µM | OVCAR-8 > 100 µM | RPMI-8226 > 100 µM | SF-295 > 100 µM | SF-539 > 100 µM | SK-MEL-5 > 100 µM | SN12C > 100 µM | SR > 100 µM | SW-620 > 100 µM | TK-10 > 100 µM

O=C(O)C1C2CCC(O2)C1C(=O)NCc1cccnc1 (stereo unspecified)
inactive: CCRF-CEM > 100 µM | DU-145 > 100 µM | HOP-62 > 100 µM | KM12 > 100 µM | M14 > 100 µM | MCF7 > 100 µM | Malme-3M > 100 µM | NCI-H522 > 100 µM | RPMI-8226 > 100 µM | SF-295 > 100 µM | SF-539 > 100 µM | SK-MEL-5 > 100 µM | SN12C > 100 µM | SR > 100 µM | SW-620 > 100 µM | TK-10 > 100 µM | U-251 > 100 µM

COc1cc(/C=C2\S/C(=N/Nc3nc(-c4ccc(Br)cc4)cs3)NC2=O)cc(OC)c1OC
inactive: CCRF-CEM 2.45 µM | DU-145 19.3 µM | HOP-62 10.5 µM | HOP-92 3.63 µM | KM12 7.73 µM | M14 15.6 µM | MCF7 15.4 µM | NCI-H226 4.09 µM | NCI-H522 12.5 µM | OVCAR-8 14.5 µM | SF-295 12.4 µM | SF-539 8.83 µM | SK-MEL-5 5.02 µM | SN12C 28.6 µM | SW-620 8.55 µM | TK-10 12 µM | U-251 2.99 µM

CC(=O)Oc1c(C)cc2c(c1C)C(C)(C)CN2C(=O)C(C)(C)C
inactive: CCRF-CEM 65.9 µM | DU-145 > 100 µM | HOP-62 > 100 µM | HOP-92 20.1 µM | KM12 > 100 µM | M14 65.9 µM | MCF7 > 100 µM | NCI-H226 38.5 µM | NCI-H522 > 100 µM | OVCAR-8 > 100 µM | RPMI-8226 53.8 µM | SF-295 > 100 µM | SF-539 > 100 µM | SK-MEL-5 42.3 µM | SN12C > 100 µM | SW-620 > 100 µM | TK-10 > 100 µM | U-251 > 100 µM
